Results: EPA's ToxRefDB 2

What was measured:
[1] = test system: rat; settings: Multigenerational reproductive toxicity study, sprague dawley, Inhalation, Whole-Body, dose end: 2 generation
[2] = test system: rat; settings: Prenatal developmental toxicity study, sprague dawley, Inhalation, Whole-Body, dose end: 15 GD
[3] = test system: rat; settings: Multigenerational reproductive toxicity study, sprague dawley, Oral, Water, dose end: 3 generation
[4] = test system: rat; settings: Multigenerational reproductive toxicity study, Sprague Dawley, Oral, Gavage/Intubation, dose end: 2 generation
[5] = test system: rat; settings: Multigenerational reproductive toxicity study, Oral, Gavage/Intubation, dose end: 2 generation
[6] = test system: rat; settings: Carcinogenicity, fischer, Oral, Feed, dose end: 104 week, group: systemic
[7] = test system: rat; settings: Prenatal developmental toxicity study; sprague dawley; Oral; Gavage/Intubation; dose end: 15 GD; group: developmental; systemic / in life observation / body weight / fetal weight
[8] = test system: mouse; settings: Chronic toxicity, other, Oral, Feed, dose end: 150 week, group: systemic
[9] = test system: rat; settings: Chronic toxicity, sprague dawley, Oral, Feed, dose end: 24 month, group: systemic
[10] = test system: rat; settings: Carcinogenicity; other; Oral; Feed; dose end: 78 week; group: systemic; systemic / pathology microscopic / thyroid gland / adenoma + systemic / in life observation / clinical signs / abdominogenital staining + …
[11] = test system: mouse; settings: Carcinogenicity; b6c3f1; Oral; Feed; dose end: 78 week; group: systemic; systemic / in life observation / body weight / body weight + systemic / pathology microscopic / liver / carcinoma
[12] = group: offspring, systemic / in life observation / body weight / offspring (pup) weight gain + systemic / in life observation / body weight / offspring (pup) …
[13] = group: parental, systemic / in life observation / body weight / body weight
[14] = group: reproductive, reproductive / offspring survival early / litter viability other / litter viability + reproductive / reproductive performance / …
[15] = group: developmental, systemic / in life observation / body weight / fetal weight
[16] = group: maternal, systemic / in life observation / body weight / body weight + systemic / in life observation / body weight / body weight gain
[17] = group: maternal, systemic / in life observation / body weight / body weight + systemic / in life observation / body weight / body weight gain + systemic / in…
[18] = group: offspring, systemic / pathology microscopic / liver / nuclear alteration
[19] = group: parental, systemic / pathology microscopic / liver / apoptosis
[20] = group: offspring, developmental / developmental landmark / vaginal opening / vaginal opening + systemic / clinical chemistry / luteinizing hormone (lh) / …
[21] = group: offspring, systemic / in life observation / clinical signs / swimming time trial
[22] = group: parental, systemic / in life observation / clinical signs / salivation + systemic / organ weight / ovary / absolute + systemic / organ weight / ovary…
[23] = group: reproductive, reproductive / offspring survival early / birth index / live birth index + reproductive / reproductive performance / implantations / …
[24] = group: offspring, developmental / developmental malformation / bone / wavy
[25] = group: reproductive, reproductive / reproductive performance / gestational length / gestational length + reproductive / offspring survival early / dead fetuses…
[26] = systemic / pathology microscopic / parathyroid gland / hyperplasia
[27] = systemic / in life observation / body weight / body weight
[28] = systemic / in life observation / body weight / body weight + systemic / organ weight / liver / absolute + systemic / organ weight / liver / …

`C1CO1` [Ethylene oxide] showed an LEL [1, 12] of 33 ppm, an LOAEL [1, 12] of 33 ppm and an NEL [1, 12] of 10 ppm. It also gave an NOAEL [1, 12] of 10 ppm, an LEL [1, 13] of 33 ppm and an LOAEL [1, 13] of 33 ppm. For the same compound, the NEL [1, 13] was 10 ppm, the NOAEL [1, 13] was 10 ppm and the LEL [1, 14] was 33 ppm. For the same compound, the LOAEL [1, 14] was 33 ppm, the NEL [1, 14] was 10 ppm and the NOAEL [1, 14] was 10 ppm. For the same compound, the LEL [2, 15] was 50 ppm, the LOAEL [2, 15] was 50 ppm and the NEL [2, 15] was < 50 ppm. For the same compound, the NOAEL [2, 15] was < 50 ppm, the LEL [2, 16] was 125 ppm and the LOAEL [2, 16] was 125 ppm. The NEL [2, 17] was 50 ppm and the NOAEL [2, 17] was 50 ppm.
With `CCCCCCCCCc1ccccc1O` [Nonylphenol (mixed)] the LEL [3, 18] was 1.25 mg/kg/day, the LOAEL [3, 18] was > 1.25 mg/kg/day and the NEL [3, 18] was < 1.25 mg/kg/day. The NOAEL [3, 18] was ≥ 1.25 mg/kg/day, the LEL [3, 19] was 1.25 mg/kg/day and the LOAEL [3, 19] was > 1.25 mg/kg/day. For the same compound, the NEL [3, 19] was < 1.25 mg/kg/day, the NOAEL [3, 19] was ≥ 1.25 mg/kg/day and the LOAEL [4, 20] was > 50 mg/kg/day. For the same compound, the NOAEL [4, 20] was ≥ 50 mg/kg/day, the LEL [4, 21] was 2 mg/kg/day and the NEL [4, 21] was < 2 mg/kg/day. The LEL [4, 22] was 50 mg/kg/day, the LOAEL [4, 22] was > 50 mg/kg/day and the NEL [4, 22] was 10 mg/kg/day. For the same compound, the NOAEL [4, 22] was ≥ 50 mg/kg/day, the LEL [4, 23] was 50 mg/kg/day and the LOAEL [4, 23] was > 50 mg/kg/day. For the same compound, the NEL [4, 23] was 10 mg/kg/day and the NOAEL [4, 23] was ≥ 50 mg/kg/day.
In the case of `COc1ccc(C(=O)c2c(C)n(CCN3CCOCC3)c3ccccc23)cc1` [Pravadoline], the LEL [5, 24] is reported as 300 mg/kg/day, the LOAEL [5, 24] is reported as > 300 mg/kg/day and the NEL [5, 24] is reported as 100 mg/kg/day. For the same compound, the NOAEL [5, 24] was ≥ 300 mg/kg/day, the NEL ([5]; group: reproductive, reproductive / reproductive performance / gestational length / gestational length) was 100 mg/kg/day and the LEL [5, 25] was 300 mg/kg/day. The LOAEL [5, 25] was > 300 mg/kg/day and the NOAEL [5, 25] was ≥ 300 mg/kg/day.
With `O=c1c(O)c(-c2ccc(O)c(O)c2)oc2cc(O)cc(O)c12` [Quercetin] the LOAEL ([6]; systemic / in life observation / body weight / body weight + systemic / in life observation / body weight / body weight gain + systemic / …) was 1600 mg/kg/day, the NOAEL ([6]; systemic / in life observation / body weight / body weight + systemic / organ weight / kidney / relative to body weight + systemic / organ …) was 400 mg/kg/day and the LEL [6, 26] was 40 mg/kg/day. For the same compound, the NEL [6, 26] was < 40 mg/kg/day, the LEL [7] was 200 mg/kg/day and the LOAEL [7] was > 2000 mg/kg/day. The NEL [7] was 20 mg/kg/day and the NOAEL [7] was ≥ 2000 mg/kg/day.
Work on `CCOC(=O)NC(=S)Nc1ccccc1NC(=S)NC(=O)OCC` [Thiophanate] yielded an NEL ([8]; systemic / pathology microscopic / ovary / cyst) of 60 mg/kg/day, an LOAEL ([8]; systemic / pathology microscopic / testes / hypospermatogenesis) of 300 mg/kg/day and an NOAEL ([8]; systemic / pathology microscopic / testes / hypospermatogenesis + systemic / pathology microscopic / liver / fatty change) of 60 mg/kg/day. The LEL ([8]; systemic / pathology microscopic / testes / hypospermatogenesis + systemic / pathology microscopic / liver / fatty change + systemic / …) was 300 mg/kg/day, the NEL [9, 27] was 10 mg/kg/day and the NOAEL [9, 27] was 10 mg/kg/day. For the same compound, the LEL [9, 28] was 50 mg/kg/day and the LOAEL [9, 28] was 50 mg/kg/day.
With `Clc1ccc(C(c2ccc(Cl)cc2)C(Cl)Cl)cc1` [p,p'-DDD] the LEL [10] was 42.5 mg/kg/day, the LOAEL [10] was > 85 mg/kg/day and the NEL [10] was < 42.5 mg/kg/day. The NOAEL [10] was ≥ 85 mg/kg/day, the LEL [11] was 61.6 mg/kg/day and the LOAEL [11] was > 123 mg/kg/day. For the same compound, the NEL [11] was < 61.6 mg/kg/day and the NOAEL [11] was ≥ 123 mg/kg/day.
